The values below come from US11807693B2 (priority 2014, dated 2023).

Starred links: 1 amine or outer side, 2 acyl side, 3 side chain; linkers in the order of their positions; H or OH if unused. Non-standard residues stand in square brackets, D forms with d. Residues, ends and D or L forms follow the SMILES beside them. *: point of attachment. Oic = O=C(O)[C@@H]1C[C@@H]2CCCC[C@@H]2N1; Phe(4-Cl) = N[C@@H](Cc1ccc(Cl)cc1)C(=O)O; Phe(4-F) = N[C@@H](Cc1ccc(F)cc1)C(=O)O; γGlu = O=C(O)[C@H](CCC(=O)[*:2])N[*:1]; d(β3hF) = N[C@@H](CC(=O)O)Cc1ccccc1; NMeR = CN[C@@H](CCCNC(=N)N)C(=O)O; Palmitoyl = CCCCCCCCCCCCCCCC(=O)*; Tridecanoyl = CCCCCCCCCCCCC(=O)*; αMeF = C[C@](N)(Cc1ccccc1)C(=O)O; dTic = O=C(O)[C@H]1Cc2ccccc2CN1; Cha = N[C@@H](CC1CCCCC1)C(=O)O; αMeL = CC(C)C[C@](C)(N)C(=O)O; Tle = CC(C)(C)[C@H](N)C(=O)O; αMeP = C[C@@]1(C(=O)O)CCCN1; β3hP = O=C(O)C[C@@H]1CCCN1; Pip = O=C(O)[C@@H]1CCCCN1; β3hS = N[C@@H](CO)CC(=O)O; Nle = CCCC[C@H](N)C(=O)O; Deg = CCC(N)(CC)C(=O)O; AEEA = NCCOCCOCC(=O)O; Aib = CC(C)(N)C(=O)O

One experiment has as its target T1, human APJ receptor (Homo sapiens, UniProt P35414).
T1 construct: expressed in transfected cells
T1 sequence (P35414 1-380): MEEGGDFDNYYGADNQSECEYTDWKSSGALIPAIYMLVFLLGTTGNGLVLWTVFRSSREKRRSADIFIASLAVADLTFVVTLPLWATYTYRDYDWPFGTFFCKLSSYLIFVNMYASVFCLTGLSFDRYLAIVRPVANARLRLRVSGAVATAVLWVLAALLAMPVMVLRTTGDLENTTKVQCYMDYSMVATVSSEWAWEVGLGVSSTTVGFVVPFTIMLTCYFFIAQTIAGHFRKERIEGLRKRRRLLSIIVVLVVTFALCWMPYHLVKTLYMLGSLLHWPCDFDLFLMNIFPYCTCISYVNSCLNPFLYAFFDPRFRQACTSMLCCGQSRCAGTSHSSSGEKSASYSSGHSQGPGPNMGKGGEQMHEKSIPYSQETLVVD
The experiment in a line: [35S] GTPγS assay, human APJ receptor. Type of experiment: biochemical. As to conditions: Table 16. On the technique in general: Binding of GTPγS marks nucleotide exchange on a G protein.
Procedure: The membranes were incubated with modified peptides in the assay buffer. […] Bound [^35S] GTPγS was separated from free radiolabel by filtration. The filter bound radioactivity was determined by liquid scintillation counting.
`CCCCCCCCCCCCC(=O)N[C@@H](CCC(=O)NCCOCCOCC(=O)NCCOCCOCC(=O)N[C@@H](CCC(N)=O)C(=O)N[C@@H](CCCNC(=N)N)C(=O)N1CCC[C@H]1C(=O)N(C)[C@@H](CCCNC(=N)N)C(=O)N[C@@H](CC1CCCCC1)C(=O)N[C@@H](CO)C(=O)N[C@@H](C)C(=O)N[C@@H](CCCCN)C(=O)NCC(=O)N1[C@H](C(=O)N[C@@H](CCCC)C(=O)N2CCC[C@H]2C(=O)N[C@@H](Cc2ccc(Cl)cc2)C(=O)O)C[C@@H]2CCCC[C@@H]21)C(=O)O` [compound 419] ({Tridecanoyl-γGlu-AEEA-AEEA}-QRP[NMeR][Cha]SAKG[Oic][Nle]P[Phe(4-Cl)]-OH) showed an EC50 of 0.484 nM.

The compound `CCCCCCCCCCCCC(=O)N[C@@H](CCC(=O)NCCOCCOCC(=O)NCCOCCOCC(=O)N[C@@H](CCC(N)=O)C(=O)N[C@@H](CCCNC(=N)N)C(=O)N1CCC[C@H]1C(=O)N(C)[C@@H](CCCNC(=N)N)C(=O)N[C@@H](CC1CCCCC1)C(=O)N[C@@H](CO)C(=O)N[C@H](C(=O)N[C@@H](CCCCN)C(=O)NCC(=O)N1[C@H](C(=O)N[C@@H](CCCC)C(=O)N2CCC[C@H]2C(=O)N[C@@H](Cc2ccc(Cl)cc2)C(=O)O)C[C@@H]2CCCC[C@@H]21)C(C)(C)C)C(=O)O` [compound 438] ({Tridecanoyl-γGlu-AEEA-AEEA}-QRP[NMeR][Cha]S[Tle]KG[Oic][Nle]P[Phe(4-Cl)]-OH) came in with an EC50 of 1.49 nM.

On to `CCCCCCCCCCCCC(=O)N[C@@H](CCC(=O)NCCOCCOCC(=O)NCCOCCOCC(=O)N[C@@H](CCC(N)=O)C(=O)N[C@@H](CCCNC(=N)N)C(=O)N1CCCC[C@H]1C(=O)N(C)[C@@H](CCCNC(=N)N)C(=O)N[C@@H](CC1CCCCC1)C(=O)N[C@@H](CO)C(=O)N[C@@H](Cc1c[nH]cn1)C(=O)N[C@@H](CCCCN)C(=O)NCC(=O)N1[C@H](C(=O)N[C@@H](CCCC)C(=O)N2CCC[C@H]2C(=O)N[C@@H](Cc2ccc(Cl)cc2)C(=O)O)C[C@@H]2CCCC[C@@H]21)C(=O)O` [compound 440] ({Tridecanoyl-γGlu-AEEA-AEEA}-QR[Pip][NMeR][Cha]SHKG[Oic][Nle]P[Phe(4-Cl)]-OH), for which the EC50 is 3.48 nM.

`CCCCCCCCCCCCC(=O)N[C@@H](CCC(=O)NCCOCCOCC(=O)NCCOCCOCC(=O)N[C@@H](CCC(N)=O)C(=O)N[C@@H](CCCNC(=N)N)C(=O)N1CCC[C@H]1CC(=O)N(C)[C@@H](CCCNC(=N)N)C(=O)N[C@@H](CC1CCCCC1)C(=O)N[C@@H](CO)C(=O)N[C@@H](Cc1c[nH]cn1)C(=O)N[C@@H](CCCCN)C(=O)NCC(=O)N1[C@H](C(=O)N[C@@H](CCCC)C(=O)N2CCC[C@H]2C(=O)N[C@@H](Cc2ccc(Cl)cc2)C(=O)O)C[C@@H]2CCCC[C@@H]21)C(=O)O` [compound 441] ({Tridecanoyl-γGlu-AEEA-AEEA}-QR[β3hP][NMeR][Cha]SHKG[Oic][Nle]P[Phe(4-Cl)]-OH) came in with an EC50 of 1.9 nM.

`CCCCCCCCCCCCC(=O)N[C@@H](CCC(=O)NCCOCCOCC(=O)NCCOCCOCC(=O)N[C@H](CCC(N)=O)C(=O)N[C@@H](CCCNC(=N)N)C(=O)N1CCC[C@H]1C(=O)N(C)[C@@H](CCCNC(=N)N)C(=O)N[C@@](C)(CC(C)C)C(=O)N[C@@H](CO)CC(=O)N[C@@H](Cc1c[nH]cn1)C(=O)N[C@@H](CCCCN)C(=O)NCC(=O)N1[C@H](C(=O)N[C@@H](CCCC)C(=O)N2CCC[C@@]2(C)C(=O)N[C@@H](Cc2ccc(Cl)cc2)C(=O)O)C[C@@H]2CCCC[C@@H]21)C(=O)O` [compound 518] ({Tridecanoyl-γGlu-AEEA-AEEA}-[dQ]RP[NMeR][αMeL][β3hS]HKG[Oic][Nle][αMeP][Phe(4-Cl)]-OH) gave an EC50 of 0.113 nM.

For the compound `CCCCCCCCCCCCC(=O)N[C@@H](CCC(=O)NCCOCCOCC(=O)NCCOCCOCC(=O)N[C@H](CCC(N)=O)C(=O)N[C@@H](CCC(=O)O)C(=O)N1CCC[C@H]1C(=O)N(C)[C@@H](CCCNC(=N)N)C(=O)N[C@@H](CC1CCCCC1)C(=O)N[C@@H](CO)C(=O)N[C@@H](Cc1c[nH]cn1)C(=O)N[C@@H](CCCCN)C(=O)NCC(=O)N1[C@H](C(=O)N[C@@H](CCCC)C(=O)NC(C)(C)C(=O)N[C@@H](Cc2ccc(Cl)cc2)C(=O)O)C[C@@H]2CCCC[C@@H]21)C(=O)O` [compound 524] ({Tridecanoyl-γGlu-AEEA-AEEA}-[dQ]EP[NMeR][Cha]SHKG[Oic][Nle][Aib][Phe(4-Cl)]-OH), a half-maximal effect (EC50) was put at 53.1 nM.

The compound `CCCCCCCCCCCCC(=O)N[C@@H](CCC(=O)NCCOCCOCC(=O)NCCOCCOCC(=O)N[C@H](CCC(N)=O)C(=O)N[C@H](CCC(=O)O)C(=O)N1CCC[C@H]1C(=O)N(C)[C@@H](CCCNC(=N)N)C(=O)N[C@@H](CC1CCCCC1)C(=O)N[C@@H](CO)C(=O)N[C@@H](Cc1c[nH]cn1)C(=O)N[C@@H](CCCCN)C(=O)NCC(=O)N1[C@H](C(=O)N[C@@H](CCCC)C(=O)NC(C)(C)C(=O)N[C@@H](Cc2ccc(Cl)cc2)C(=O)O)C[C@@H]2CCCC[C@@H]21)C(=O)O` [compound 525] ({Tridecanoyl-γGlu-AEEA-AEEA}-[dQ][dE]P[NMeR][Cha]SHKG[Oic][Nle][Aib][Phe(4-Cl)]-OH) gave an EC50 of 159 nM.

On to `CCCCCCCCCCCCC(=O)N[C@@H](CCC(=O)NCCOCCOCC(=O)NCCOCCOCC(=O)N[C@H](CCC(N)=O)C(=O)N[C@@H](CCCNC(=N)N)C(=O)N1CCC[C@H]1C(=O)N(C)[C@@H](CCCNC(=N)N)C(=O)N[C@@H](CC1CCCCC1)C(=O)N[C@@H](CO)C(=O)N[C@@H](Cc1c[nH]cn1)C(=O)N[C@@H](CCCCN)C(=O)NCC(=O)N1[C@H](C(=O)N[C@@H](CCCC)C(=O)NC(CC)(CC)C(=O)N[C@@H](Cc2ccc(Cl)cc2)C(=O)O)C[C@@H]2CCCC[C@@H]21)C(=O)O` [compound 549] ({Tridecanoyl-γGlu-AEEA-AEEA}-[dQ]RP[NMeR][Cha]SHKG[Oic][Nle][Deg][Phe(4-Cl)]-OH), for which a half-maximal effect (EC50) was put at 1.2 nM. Against the preceding compound, the EC50 is about 130-fold lower.

Still in this experiment, the particulars now being: human APJ receptor.
Take `CCCCCCCCCCCCC(=O)N[C@@H](CCC(=O)NCCOCCOCC(=O)NCCOCCOCC(=O)N[C@@H](CC(N)=O)CC(=O)N[C@@H](CCCNC(=N)N)C(=O)N1CCC[C@H]1C(=O)N(C)[C@@H](CCCNC(=N)N)C(=O)N[C@@H](CC(C)C)C(=O)N[C@@H](CO)C(=O)N[C@@H](Cc1c[nH]cn1)C(=O)N[C@@H](CCCCN)C(=O)NCC(=O)N1CCC[C@H]1C(=O)N[C@@H](CCCC)C(=O)N1CCC[C@H]1C(=O)N[C@@H](Cc1ccc(Cl)cc1)C(=O)O)C(=O)O` [compound 420]: the EC50 worked out at 0.0526 nM.

In turn, `CCCCCCCCCCCCCCCC(=O)N[C@@H](CCC(=O)NCCOCCOCC(=O)NCCOCCOCC(=O)N[C@H](CCC(N)=O)C(=O)N[C@@H](CCCNC(=N)N)C(=O)N1CCC[C@H]1C(=O)N(C)[C@@H](CCCNC(=N)N)C(=O)N[C@@H](CC1CCCCC1)C(=O)N[C@@H](CO)C(=O)N[C@@H](Cc1c[nH]cn1)C(=O)N[C@@H](CCCCN)C(=O)NCC(=O)N1CCCC[C@H]1C(=O)NC(C)(C)C(=O)N[C@@H](Cc1ccc(Cl)cc1)C(=O)O)C(=O)O` [compound 581] ({Palmitoyl-γGlu-AEEA-AEEA}-[dQ]RP[NMeR][Cha]SHKG[Pip][Aib][Phe(4-Cl)]-OH) displayed an EC50 of 1.4 nM. This EC50 is about 27-fold higher than that of the compound before.

The compound `CCCCCCCCCCCCCCCC(=O)N[C@@H](CCC(=O)NCCOCCOCC(=O)NCCOCCOCC(=O)N[C@H](CCC(N)=O)C(=O)N[C@@H](CCCNC(=N)N)C(=O)N1CCC[C@H]1C(=O)N(C)[C@@H](CCCNC(=N)N)C(=O)N[C@@H](CC1CCCCC1)C(=O)N[C@@H](CO)C(=O)N[C@@H](Cc1c[nH]cn1)C(=O)N[C@@H](CCCCN)C(=O)NCC(=O)N1CCCC[C@H]1C(=O)N[C@@H](CCCC)C(=O)N1CCC[C@H]1C(=O)N1Cc2ccccc2C[C@@H]1C(=O)O)C(=O)O` [compound 599] ({Palmitoyl-γGlu-AEEA-AEEA}-[dQ]RP[NMeR][Cha]SHKG[Pip][Nle]P[dTic]-OH) registered an EC50 of 0.44 nM.

On to `CCCCCCCCCCCCCCCC(=O)N[C@@H](CCC(=O)NCCOCCOCC(=O)NCCOCCOCC(=O)N[C@H](CCC(N)=O)C(=O)N[C@@H](CCCNC(=N)N)C(=O)N1CCC[C@H]1C(=O)N(C)[C@@H](CCCNC(=N)N)C(=O)N[C@@H](CC1CCCCC1)C(=O)N[C@@H](CO)C(=O)N[C@@H](Cc1c[nH]cn1)C(=O)N[C@@H](CCCCN)C(=O)NCC(=O)N1[C@H](C(=O)N[C@@H](CCCC)C(=O)N2CCCC[C@H]2C(=O)N[C@@](C)(Cc2ccccc2)C(=O)O)C[C@@H]2CCCC[C@@H]21)C(=O)O` [compound 609] ({Palmitoyl-γGlu-AEEA-AEEA}-[dQ]RP[NMeR][Cha]SHKG[Oic][Nle][Pip][αMeF]-OH), for which the response was half-maximal at 1.25 nM (EC50).

In the case of `CCCCCCCCCCCCCCCC(=O)N[C@@H](CCC(=O)NCCOCCOCC(=O)NCCOCCOCC(=O)N[C@H](CCC(N)=O)C(=O)N[C@@H](CCCNC(=N)N)C(=O)N1CCC[C@H]1C(=O)N(C)[C@@H](CCCNC(=N)N)C(=O)N[C@@H](CC1CCCCC1)C(=O)N[C@@H](CO)C(=O)N[C@@H](Cc1c[nH]cn1)C(=O)N[C@@H](CCCCN)C(=O)NCC(=O)N1CCC[C@H]1CC(=O)N[C@@H](CCCC)C(=O)N[C@@H](Cc1ccc(Cl)cc1)C(=O)O)C(=O)O` [compound 613] ({Palmitoyl-γGlu-AEEA-AEEA}-[dQ]RP[NMeR][Cha]SHKG[β3hP][Nle][Phe(4-Cl)]-OH), the EC50 turned out to be 1.66 nM.

Consider `CCCCCCCCCCCCCCCC(=O)N[C@@H](CCC(=O)NCCOCCOCC(=O)NCCOCCOCC(=O)N[C@H](CCC(N)=O)C(=O)N[C@@H](CCCNC(=N)N)C(=O)N1CCC[C@H]1C(=O)N(C)[C@@H](CCCNC(=N)N)C(=O)N[C@@H](CC1CCCCC1)C(=O)N[C@@H](CO)C(=O)N[C@@H](Cc1c[nH]cn1)C(=O)N[C@@H](Cc1ccc(F)cc1)C(=O)NCC(=O)N1[C@H](C(=O)N[C@@H](CCCC)C(=O)N2CCC[C@H]2CC(=O)N[C@@H](CC(=O)O)Cc2ccccc2)C[C@@H]2CCCC[C@@H]21)C(=O)O` [compound 622] ({Palmitoyl-γGlu-AEEA-AEEA}-[dQ]RP[NMeR][Cha]SH[Phe(4-F)]G[Oic][Nle][β3hP][d(β3hF)]-OH), for which a half-maximal effect (EC50) was put at 11.8 nM.

For orientation: EC50 means the midpoint of the concentration-response curve. Low values mean a more potent agent, high ones a less potent agent.
